2 compounds from patent publication US7893299B2, “Interleukin-1 and tumor necrosis factor-αmodulators; syntheses of such modulators and methods of using such modulators” (Nereus Pharmaceuticals, Inc., priority 2005, dated 2011) can be followed below.

Molecules are shown by their SMILES. Like-named read-outs stand apart in the source and are kept apart here.

The test system of test [1] is MDA-MB-231 (Breast). The test is described as follows: 48 hr cytotoxicity, MDA-MB-231. It counts as cell-based, human. The method, then: B16-F10 (ATCC; CRL-6475), DU 145 (ATCC; HTB-81), HEK293 (ATCC; CRL-1573), HT-29 (ATCC; HTB-38), LoVo (ATCC; CCL-229), MDA-MB-231 (ATCC; HTB-26), MIA PaCa-2 (ATCC; CRL-1420), NCI-H292 (ATCC; CRL-1848), OVCAR-3 (ATCC, HTB-161), PANC-1 (ATCC; CRL-1469), PC-3 (ATCC; CRL-1435), RPMI 8226 (ATCC; CCL-155) and U266 (ATCC; TIB-196) are maintained in appropriate culture media. The cells are cultured in an incubator at 37° C. in 5% CO2 and 95% humidified air.
For cell growth inhibition assays, B16-F10, DU 145, HEK293, HT-29, LoVo, MDA-MB-231, MIA PaCa-2, NCI-H292, OVCAR-3, PANC-1, PC-3, RPMI 8226 and U266 cells are seeded at 1.25×10^3, 5×10^3, 1.5×10^4, 5×10^3, 5×10^3, 1×10^4, 2×10^3, 4×10^3, 1×10^4, 7.5×10^3, 5×10^3, 2×10^4, 2.5×10^4 cells/well respectively in 90 μl complete media into Corning 3904 black-walled, clear-bottom tissue culture plates. 20 mM stock solutions of compounds of Formula II, IIA, and IIB are prepared in 100% DMSO, aliquoted and stored at −80° C. Compounds of Formula II, IIA, and IIB are serially diluted and added in triplicate to the test wells resulting in final concentrations ranging from of 20 μM to 0.2 pM. […]
Following 48 hours of drug exposure, 10 μl of 0.2 mg/ml resazurin (obtained from Sigma-Aldrich Chemical Co.) in Mg^2+, Ca^2+ free phosphate buffered saline is added to each well and the plates are returned to the incubator for 3-6 hours. Since living cells metabolize Resazurin, the fluorescence of the reduction product of Resazurin is measured using a Fusion microplate fluorometer (Packard Bioscience) with λex=535 nm and λem=590 nm filters. […]
The cytotoxicity assays were performed by seeding individual cell lines at appropriate density in the 96 well flat-bottomed plates and allowed to attach for 24 hours at 37° C., 5% CO2 and 95% humidified air (RPMI 8226 and U266 cells were plated in 96 well plates on the day of compound addition). […] Cell viability was assessed 48 hours later by measuring the fluorescence of the reduction product of Resazurin by a Fusion microplate fluorometer (PerkinElmer) with λex=535 nm and λem=590 nm filters. […]

Test [2] has as its system IκBα phosphorylation. The test is described as follows: phosphorylation of IκBα induced by Toll-like receptor ligands in RPMI 8226 cells. Format: cell-based. The conditions noted are these: 13 μM. The protocol: One ml/well of 2×10^6/ml RPMI 8226 cells (#CCL-155C, American Type Culture Collection) were seeded in 6-well plate in LGM-3 medium and cultured for overnight at 37° C., 5% CO2 and 95% humidified air. Formula (IIB-A1) was added to RPMI 8226 cells at the final concentration of 13 μM for 1 hr. DMSO was used as a control. Cells were then stimulated with 50 ng/ml LPS, 2 μg/ml Lipoteichoic acid (LTA) and CpG DNA for various length of time. At the end of each period of stimulation, cells were harvested by centrifugation and cell pellets were washed once in ice-cold 1× Dulbecco's Phosphate buffered Saline (DPBS). To prepare samples for SDS-PAGE, cells were lysed in RIPA buffer (50 mM Tris-HCl, pH7.4, 0.9% NaCl, 1% Triton X-100, 0.25% Na-deoxycholate, 1 mM EDTA, 2 mM Na3VO4 and 1× protease inhibitors cocktail) for 15 min on ice. Cell lysates were cleared by centrifugation at 14,000 rpm, 4° C. for 10 min. Protein concentrations of cell lysates were determined by BCA protein assay kit prior to SDS-PAGE. Equal amount of proteins from various cell lysates were resolved on 10% NuPage MES precast gels and transferred to nitrocellulose membranes according to the manufacturer's instructions. […]

Usually IC50 stands for the point on the concentration scale where inhibition reaches its midpoint. On to `C=CC(=O)C1(C)CCCC2(C)C3=CCC(C)(C=C)C[C@@H]3CC[C@H]12` (stereo in doubt) [NPI-1387, 1-[(1S,4aS,7R)-1,4a,7-Trimethyl-7-vinyl-1,2,3,4,4a,6,7,8,8a,9,10,10a-dodecahydro-1-phenanthrenyl]-2-propen-1-one], for which the IC50 in test [1] was 15 ± 4 µM; in test [1] (Homo sapiens, MDA-MB-231, 48 h) it was 18 ± 2 µM.
As to `C=C[C@@]1(C)CCC=C2[C@H]1CC[C@@H]1[C@](C)(C(=O)NC3CCCCC3)CCC[C@@]21C` [Formula (IIB-A1), N-Cyclohexylamide Derivative of TTL], the “phosphorylation of IκBα induced by Toll-like receptor ligands (LTA, CpG DNA)” value was “inhibits the phosphorylation of IκBα induced by Toll-like receptor ligands” in test [2]; “inhibits the phosphorylation of IκBα induced by LTA and CpG DNA” in test [2] (listed as formula (IIB-A1)).
